Assay results reported in patent US11649510B2, “Screening method for materials that suppress characteristic body odor of elderly people” (Takasago International Corporation, priority 2017, dated 2023).

What was measured:
OR4E2 = target: T1, OR4E2 (Homo sapiens, UniProt Q8NGC2, Q234R/V118M); test: luciferase reporter gene assay, response of OR4E2 to odorous substance; type: cell-based
T1 sequence (Q8NGC2 1-313 V118M/Q234R): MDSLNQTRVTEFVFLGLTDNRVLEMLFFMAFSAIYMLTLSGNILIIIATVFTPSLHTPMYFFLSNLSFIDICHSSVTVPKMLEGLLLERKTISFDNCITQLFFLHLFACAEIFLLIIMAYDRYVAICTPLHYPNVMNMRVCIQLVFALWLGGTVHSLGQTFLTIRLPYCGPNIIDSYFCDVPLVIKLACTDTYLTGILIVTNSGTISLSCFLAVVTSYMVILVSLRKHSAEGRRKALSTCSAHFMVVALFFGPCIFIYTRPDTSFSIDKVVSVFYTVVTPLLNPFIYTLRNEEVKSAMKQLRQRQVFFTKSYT

OR51A7 = target: T2, OR51A7 (Homo sapiens, UniProt Q8NH64); test: luciferase reporter gene assay, response of OR51A7 to odorous substance; type: cell-based; conditions: trans-2-octenal 50 μM, HEK293T cells expressing OR51A7
T2 sequence (Q8NH64 1-312): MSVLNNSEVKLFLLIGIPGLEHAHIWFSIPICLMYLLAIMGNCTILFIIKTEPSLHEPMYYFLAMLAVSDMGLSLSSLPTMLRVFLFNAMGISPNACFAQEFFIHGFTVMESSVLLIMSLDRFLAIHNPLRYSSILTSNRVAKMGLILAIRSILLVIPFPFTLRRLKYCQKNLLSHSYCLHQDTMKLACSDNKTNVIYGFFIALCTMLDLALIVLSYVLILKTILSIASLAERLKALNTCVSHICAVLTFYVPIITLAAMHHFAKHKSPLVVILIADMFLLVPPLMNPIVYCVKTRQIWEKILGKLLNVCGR
Experimental: (§1) In the same manner as shown in Example 1, the cells engineered to express 402 types of human olfactory receptors were measured for receptor responses to trans-2-octenal (50 μM) by the luciferase reporter gene assay.

OR7G1 = target: T3, OR7G1 (Homo sapiens, UniProt Q8NGA0); test: luciferase reporter gene assay, response of OR7G1 to odorous substance; type: cell-based; conditions: trans-2-octenal 50 μM, HEK293T cells expressing OR7G1
T3 sequence (Q8NGA0 1-311): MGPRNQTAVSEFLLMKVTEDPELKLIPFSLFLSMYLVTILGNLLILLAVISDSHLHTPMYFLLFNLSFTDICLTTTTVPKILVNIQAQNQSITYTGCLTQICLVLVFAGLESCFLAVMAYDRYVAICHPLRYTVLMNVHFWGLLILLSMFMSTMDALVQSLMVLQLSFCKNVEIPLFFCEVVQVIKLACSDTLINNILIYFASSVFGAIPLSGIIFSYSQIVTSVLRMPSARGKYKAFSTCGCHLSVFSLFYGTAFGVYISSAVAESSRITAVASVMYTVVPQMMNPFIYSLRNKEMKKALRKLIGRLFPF
Experimental: as §1

OR9I1 = target: T4, OR9I1 (Homo sapiens, UniProt Q8NGQ6); test: luciferase reporter gene assay, response of OR9I1 to odorous substance; type: cell-based; conditions: trans-2-octenal 50 μM, HEK293T cells expressing OR9I1
T4 sequence (Q8NGQ6 1-314): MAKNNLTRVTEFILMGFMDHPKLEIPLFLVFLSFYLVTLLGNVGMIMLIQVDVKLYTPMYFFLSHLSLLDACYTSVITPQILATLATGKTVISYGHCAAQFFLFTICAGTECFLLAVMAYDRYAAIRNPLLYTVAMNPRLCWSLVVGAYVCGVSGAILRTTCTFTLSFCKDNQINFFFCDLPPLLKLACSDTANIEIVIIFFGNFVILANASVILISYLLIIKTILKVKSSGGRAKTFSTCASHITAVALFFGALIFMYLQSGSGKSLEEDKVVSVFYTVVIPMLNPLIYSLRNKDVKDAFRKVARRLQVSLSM
Experimental: as §1

OR2C1 [1] = target: T5, OR2C1 (Homo sapiens, UniProt O95371); test: luciferase reporter gene assay, response of OR2C1 to odorous substance; type: cell-based
T5 sequence (O95371 1-312): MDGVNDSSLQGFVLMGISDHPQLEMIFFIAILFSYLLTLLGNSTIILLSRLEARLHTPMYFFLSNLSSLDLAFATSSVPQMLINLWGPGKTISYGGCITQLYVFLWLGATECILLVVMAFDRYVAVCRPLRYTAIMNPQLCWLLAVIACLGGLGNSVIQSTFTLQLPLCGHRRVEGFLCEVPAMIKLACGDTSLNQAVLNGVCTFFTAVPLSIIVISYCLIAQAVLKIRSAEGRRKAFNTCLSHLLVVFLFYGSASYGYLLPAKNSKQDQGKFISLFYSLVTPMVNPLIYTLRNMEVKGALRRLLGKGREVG

OR5P3 = target: T6, OR5P3 (Homo sapiens, UniProt Q8WZ94); test: luciferase reporter gene assay, response of OR5P3 to odorous substance; type: cell-based
T6 sequence (Q8WZ94 1-311): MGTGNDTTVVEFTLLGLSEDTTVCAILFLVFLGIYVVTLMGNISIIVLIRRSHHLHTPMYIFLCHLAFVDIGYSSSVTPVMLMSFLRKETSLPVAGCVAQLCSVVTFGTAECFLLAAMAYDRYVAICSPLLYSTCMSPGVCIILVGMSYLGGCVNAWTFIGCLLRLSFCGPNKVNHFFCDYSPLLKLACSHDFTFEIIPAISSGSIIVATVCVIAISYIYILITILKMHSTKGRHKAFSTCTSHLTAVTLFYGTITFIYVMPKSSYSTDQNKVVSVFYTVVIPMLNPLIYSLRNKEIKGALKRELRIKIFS

OR2C1 [2] = target: T5, OR2C1; test: suppressive effect on the response of OR2C1 to trans-2-nonenal, luciferase reporter gene assay; conditions: mixed with trans-2-nonenal as analyte; FIGS. 9 and 10
Description: Human olfactory receptor genes were obtained by PCR cloning with Human Genomic DNA: Female (Promega) on the basis of their sequence information registered in GenBank. Into pME18S vectors, the N-terminal 20 amino acid residues of bovine rhodopsin were integrated, and subsequently the resulting human olfactory receptor genes were integrated respectively downstream thereof to obtain human olfactory receptor gene expression vectors. […]
After removal of the culture solutions, an odorous substance serving as an analyte, which had been prepared at a given concentration with CD293 (gibco) medium (supplemented with 20 μM L-glutamine), was added in 50 μL volumes to stimulate the cells for 3 hours, followed by luciferase activity measurement in accordance with the usage of a Dual-Luciferase Reporter Assay System (Promega). The response intensity of each olfactory receptor polypeptide was expressed as a fold increase value, which was determined by dividing the luciferase activity generated upon stimulation with the odorous substance by the luciferase activity generated in a test system not containing the odorous substance.

OR52N2 = target: T7, OR52N2 (Homo sapiens, UniProt Q8NGI0); test: luciferase reporter gene assay, response of OR52N2 to odorous substance; type: cell-based
T7 sequence (Q8NGI0 1-321): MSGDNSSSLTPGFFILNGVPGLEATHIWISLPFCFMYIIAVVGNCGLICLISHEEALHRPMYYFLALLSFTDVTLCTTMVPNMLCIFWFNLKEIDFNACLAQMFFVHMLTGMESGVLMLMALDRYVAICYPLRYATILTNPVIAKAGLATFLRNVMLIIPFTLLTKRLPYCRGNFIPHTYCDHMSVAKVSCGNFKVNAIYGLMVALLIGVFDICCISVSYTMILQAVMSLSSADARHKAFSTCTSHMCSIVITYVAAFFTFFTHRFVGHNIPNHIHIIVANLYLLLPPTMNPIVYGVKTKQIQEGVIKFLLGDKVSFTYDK

OR1D2 = target: T8, OR1D2 (Homo sapiens, UniProt P34982); test: luciferase reporter gene assay, response of OR1D2 to odorous substance; type: cell-based
T8 sequence (P34982 1-312): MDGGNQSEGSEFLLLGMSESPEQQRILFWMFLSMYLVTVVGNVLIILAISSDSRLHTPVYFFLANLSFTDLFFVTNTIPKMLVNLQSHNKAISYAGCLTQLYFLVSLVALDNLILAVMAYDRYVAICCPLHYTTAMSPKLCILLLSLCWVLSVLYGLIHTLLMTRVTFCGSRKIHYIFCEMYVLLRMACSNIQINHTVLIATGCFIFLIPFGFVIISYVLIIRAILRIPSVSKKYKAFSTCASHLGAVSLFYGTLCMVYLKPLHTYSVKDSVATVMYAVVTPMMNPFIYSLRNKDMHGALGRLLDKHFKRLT

Q: `CCCCC/C=C/C=O` [trans-2-octenal] was tested. Which “fold increase value (receptor response)” value (OR4E2; trans-2-octenal 50 μM, HEK293T cells expressing OR4E2) did it give?
A: Its value is ≥ 2.

Q: And the “fold increase value (receptor response)” value (OR51A7)?
A: Its value is ≥ 2.

Q: And the “fold increase value (receptor response)” value (OR7G1)?
A: Its value is ≥ 2.

Q: And the “fold increase value (receptor response)” value (OR9I1)?
A: The value was ≥ 2.

Q: What about the “fold increase value (receptor response)” value (OR2C1 [1]; trans-2-octenal 50 μM, HEK293T cells expressing OR2C1) of the same compound?
A: Its value is ≥ 2.

Q: And the “fold increase value (receptor response)” value (OR5P3; trans-2-octenal 50 μM, HEK293T cells expressing OR5P3)?
A: The value was ≥ 2.

Q: For `CC1=CC(C)C(C=O)CC1` (stereo not drawn) [dimethyltetrahydrobenzaldehyde], which “suppressive effect on the response of OR2C1 to trans-2-nonenal (ratio of fold increase value, test without material set to 100)” value (OR2C1 [2]) is on record?
A: Its value is “reducing the response of OR2C1 to trans-2-nonenal in a concentration-dependent manner”.

Q: With `CCCCCC/C=C/C=O` [trans-2-nonenal] as the compound, how does the “receptor response to different concentrations” value (OR4E2; different concentrations of trans-2-nonenal, FIG. 5, no response in mock test) read?
A: Its value is “respond to trans-2-nonenal in a concentration-dependent manner”.

Q: And the “fold increase value (receptor response)” value (OR4E2; trans-2-nonenal 60 μM, HEK293T cells expressing OR4E2, 3 hours)?
A: Its value is ≥ 2.

Q: What about the “receptor response to different concentrations” value (OR52N2; different concentrations of trans-2-nonenal, FIG. 7, no response in mock test) of the same compound?
A: Its value is “respond to trans-2-nonenal in a concentration-dependent manner”.

Q: What about the “fold increase value (receptor response)” value (OR52N2; trans-2-nonenal 60 μM, HEK293T cells expressing OR52N2, 3 hours) of the same compound?
A: The value was ≥ 2.

Q: And the “receptor response to different concentrations” value (OR2C1 [1]; different concentrations of trans-2-nonenal, FIG. 3, no response in mock test)?
A: The value was “respond to trans-2-nonenal in a concentration-dependent manner”.

Q: And the “fold increase value (receptor response)” value (OR2C1 [1]; trans-2-nonenal 60 μM, HEK293T cells expressing OR2C1, 3 hours)?
A: The value was ≥ 2.

Q: And the “receptor response to different concentrations” value (OR1D2; different concentrations of trans-2-nonenal, FIG. 2, no response in mock test)?
A: Its value is “respond to trans-2-nonenal in a concentration-dependent manner”.

Q: And the “fold increase value (receptor response)” value (OR1D2; trans-2-nonenal 60 μM, HEK293T cells expressing OR1D2, 3 hours)?
A: Its value is ≥ 2.

Q: And the “receptor response to different concentrations” value (OR5P3; different concentrations of trans-2-nonenal, FIG. 6, no response in mock test)?
A: Its value is “respond to trans-2-nonenal in a concentration-dependent manner”.

Q: And the “fold increase value (receptor response)” value (OR5P3; trans-2-nonenal 60 μM, HEK293T cells expressing OR5P3, 3 hours)?
A: The value was ≥ 2.

Q: How did the “suppressive effect on the response of OR2C1 to trans-2-nonenal (ratio of fold increase value, test without material set to 100)” value (OR2C1 [2]) turn out when `CC/C=C\CCO` [cis-3-Hexenol] was run?
A: The value was “reducing the response of OR2C1 to trans-2-nonenal in a concentration-dependent manner”.
